The values that follow come from ChEMBL document CHEMBL4622926, “Fibroblast growth factor receptor modulators employing diamines with reduced phospholipidosis-inducing potential” (Bioorg Med Chem, 2020).

The species named for series [1] is Rattus norvegicus. Description: Modulation of FGFR in Wistar rat cerebrocortical/hippocampal neuronal cells assessed as protection against glutamate-induced neuronal cell death by measuring cell survival at 10 uM pretreated for 24 hrs followed by glutamate-stimulation by CCK8 assay relative to SUN13837.
A short description of series [2]: Partition coefficient, logP of compound by RP-HPLC analysis. In kind it is physicochemical. To be noted: octanol/water.
The target of another series is CYP3A4 (Homo sapiens, UniProt P08684). Description: (§1) Mechanism based inactivation of CYP3A4 in human liver microsome assessed as remaining activity at 100 uM preincubated for 30 mins followed testosterone addition and measured after 10 mins by LC-MS/MS analysis relative to control. It is filed as ADME, microsomes. As to conditions: human liver microsomes, probe testosterone, read-out: Activity.

A further series has as its target Cytochrome P450 3A4 (Homo sapiens, UniProt P08684). Described as §1. It is filed as ADME, microsomes. As to conditions: microsomes, 10 min, 100 µM.
Series [3] can be described thus: Volume of distribution in Crl:CD(SD) rat at 1 mg/kg, iv by LC-MS/MS analysis. It is filed as ADME, organism-based. As to conditions: in vivo.
Series [4] deals with Rattus norvegicus. Description: Neuroprotective activity against microsphere induced Crl:CD(SD) rat cerebral embolism model assessed as recovery of motor coordination by measuring latency time at 1 mg/kg, po administered daily for 10 days starting from day 1 post microsphere injection and measured at 2 weeks after microsphere injection by rotarod test (reference value: 189.1 secs). In kind it is functional. (In general: Falling from the rotarod earlier than controls is read as motor impairment.)

A short description of series [5]: Elimination half life in Crl:CD(SD) rat at 1 mg/kg, iv by LC-MS/MS analysis. It is filed as ADME, organism-based. As to conditions: in vivo, read-out: beta t1/2 (converted).
A short description of series [6]: Clearance in Crl:CD(SD) rat at 1 mg/kg, iv by LC-MS/MS analysis. In kind it is ADME, organism-based. To be noted: in vivo.
Series [7] is described as follows: AUC in Crl:CD(SD) rat at 10 mg/kg, po by LC-MS/MS analysis. To be noted: in vivo. It is filed as ADME, organism-based.
Series [8] is described as follows: Oral bioavailability in Crl:CD(SD) rat at 10 mg/kg by LC-MS/MS analysis. In kind it is ADME, organism-based. As to conditions: in vivo.
Series [9] in a line: Ratio of drug level in Crl:CD(SD) rat brain to plasma at 1 mg/kg, iv measured after 1 hr by LC-MS/MS analysis. In kind it is ADME, organism-based.
Series [10] in a line: Drug metabolism in human liver microsomes assessed as carboxylesterase-mediated hydrolytic rate for diamine compound formation at 100 uM incubated for 60 mins in absence of NADPH measured per mg protein by LC-MS/MS analysis. In kind it is ADME. As to conditions: 1 h. In general terms: Microsomes from liver hold many membrane-bound enzymes, among them those of drug oxidation.

The nature of series [11]: AUC in Crl:CD(SD) rat at 5 mg/kg, po by LC-MS/MS analysis. It is filed as ADME, organism-based. To be noted: in vivo.
Series [12] in a line: Oral bioavailability in Crl:CD(SD) rat at 5 mg/kg by LC-MS/MS analysis. To be noted: in vivo. In kind it is ADME, organism-based.

The logP is a log measure of how a compound divides between an organic and an aqueous phase. Broadly, the Vd is a proportionality between amount in the body and measured concentration, not a real space. Read a low Vd as little distribution into tissue. In general, clearance refers to the rate of elimination divided by the concentration. A higher clearance goes with a high capacity for elimination. As a reminder, the AUC is the area under the concentration-time curve, a measure of exposure. One may read the bioavailability as dose-corrected exposure relative to a reference, in per cent. The low end stands for poor availability, the high end for good availability. Usually Kp stands for tissue or fluid exposure divided by exposure in the circulation.

Sequence of CYP3A4 (P08684 whole entry): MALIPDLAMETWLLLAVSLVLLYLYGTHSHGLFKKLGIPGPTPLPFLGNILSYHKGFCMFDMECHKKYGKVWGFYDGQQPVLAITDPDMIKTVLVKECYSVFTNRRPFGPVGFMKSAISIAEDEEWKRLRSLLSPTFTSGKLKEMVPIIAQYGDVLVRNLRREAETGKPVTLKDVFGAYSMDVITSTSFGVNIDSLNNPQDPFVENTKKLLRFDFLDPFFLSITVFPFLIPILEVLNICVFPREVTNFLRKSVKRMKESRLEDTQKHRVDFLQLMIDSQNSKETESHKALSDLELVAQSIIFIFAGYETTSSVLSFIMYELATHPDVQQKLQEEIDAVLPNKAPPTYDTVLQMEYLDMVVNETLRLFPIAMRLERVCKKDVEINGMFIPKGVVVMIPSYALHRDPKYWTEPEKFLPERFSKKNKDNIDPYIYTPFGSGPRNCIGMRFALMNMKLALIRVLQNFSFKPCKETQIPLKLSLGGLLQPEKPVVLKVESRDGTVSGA
Sequence of Cytochrome P450 3A4 (P08684 whole entry): as above

As to `Cc1nc(OCC(=O)N2CC[C@@H]3[C@H]2CN3Cc2ccccc2)nc(C)c1N`, in the series listed under Rattus norvegicus [1], the Activity worked out at 87%. For the same compound, the logP in [2] (read-out: logP) turned out to be 2.8. For the same compound, the activity at 10 min, 100 µM at CYP3A4 is 40%.

`Cc1nc(OCC(=O)N(C)C2CN(Cc3ccccc3)CC2F)nc(C)c1N.Cl` (centres undefined) came in with a logP in [2] of 4.8. For the same compound, the Activity at Cytochrome P450 3A4 came out at 96%.

For the compound `C[C@@H]1C[C@H]2[C@@H]3CCC4=CC(=O)C=C[C@]4(C)[C@@]3(F)[C@@H](O)C[C@]2(C)[C@@]1(O)C(=O)CO` [DEXAMETHASONE], in [2] (read-out: logP), the logP was 2.82.

Regarding `Cc1nc(OCC(=O)N(C)C2CCN(Cc3ncccn3)CC2)nc(C)c1N`, the Activity in the series listed under Rattus norvegicus [1] came to 96%. Besides, the logP in [2] (read-out: logP) is 1. Moreover, the activity at 10 min, 100 µM on CYP3A4 amounted to 99%.

Consider `Cc1nc(OCC(=O)N(C)C2CCN(CC(F)F)CC2)nc(C)c1N`, for which the Activity in the series filed under Rattus norvegicus [1] is 76%. The lipophilicity (logP) in [2] (read-out: logP) was 2. For the same compound, the activity at 10 min, 100 µM at CYP3A4 turned out to be 98%.

On to `Cc1nc(OCC(=O)N(C)C2CN(Cc3ccccc3)C2)nc(C)c1N`, for which, in the series listed under Rattus norvegicus [1], the Activity came to 127%. Also, the logP in series [2] (read-out: logP) came out at 2.1. Further, the activity at 10 min, 100 µM at CYP3A4 is 58%.

Regarding `Cc1nc(OCC(=O)N(C)C2CCN(CC(F)(F)F)CC2)nc(C)c1N`, the Activity in the series filed under Rattus norvegicus [1] amounted to 103%. Besides, the logP in series [2] (read-out: logP) is 2.6. For the same compound, the activity at 10 min, 100 µM on CYP3A4 is 75%.

On to `CN(C(=O)COc1ccc(Cl)nn1)C1CCN(CC(F)(F)F)CC1`, for which the Activity in the series listed under Rattus norvegicus [1] came to 74%. Also, the logP in series [2] (read-out: logP) turned out to be 4. Further, at CYP3A4, the activity at 10 min, 100 µM amounted to 100%.

As for `CN(C(=O)COc1ccc(Cl)nn1)C1CCN(Cc2ncccc2F)CC1`, in the series filed under Rattus norvegicus [1], the Activity came to 44%. In addition, the logP in [2] (read-out: logP) was determined as 2.6. For the same compound, the activity at 10 min, 100 µM at CYP3A4 was determined as 100%.

Consider `Cc1nc(OCC(=O)N(C)[C@H]2CN(Cc3ccccc3)C[C@@H]2O)nc(C)c1N` (relative stereo), for which the Activity in the series filed under Rattus norvegicus [1] was 93%. Further, the logP in series [2] (read-out: logP) stood at 2.4. Besides, at CYP3A4, the activity at 10 min, 100 µM amounted to 55%.

For `Cc1nc(OCC(=O)N(C)C2CCN(CC(C)(C)O)CC2)nc(C)c1N`, the Activity in the series listed under Rattus norvegicus [1] was 74%. The logP in series [2] (read-out: logP) stood at 0.7. Also, the activity at 10 min, 100 µM on CYP3A4 worked out at 97%.

For the compound `Cc1nc(OCC(=O)N(C)C2CCN(Cc3ccccc3)CC2)nc(C)c1N`, in [3], the Vd is 2.3 L/kg. Further, the activity at 10 min, 100 µM on CYP3A4 worked out at 60%. Further, in the series on Rattus norvegicus [4], the Time was 307 s. The half-life in series [5] was 1.4 h. The compound further gave a clearance in series [6] of 41.7 mL/min/kg. In series [7], this compound came in with an AUC of 3700 ng·h/mL. In series [8], the bioavailability is 70%. Besides, the Kp at 1 h in series [9] was determined as 0.15. In addition, the Drug metabolism in series [10] is recorded as 7.2 pmol/min.

With `Cc1nc(OCC(=O)N(C)C2CCN(C3COC3)CC2)nc(C)c1N`, the Activity in the series listed under Rattus norvegicus [1] turned out to be 78%. In addition, the logP in series [2] (read-out: logP) worked out at 1.1. Further, the activity at 10 min, 100 µM on CYP3A4 came out at 95%.

The compound `CN(C(=O)COc1ccc(Cl)nn1)C1CCN(CC2CC2(F)F)CC1` (centres undefined) had a Vd in series [3] of 4.2 L/kg. The Activity in the series listed under Rattus norvegicus [1] came out at 105%. Further, the logP in series [2] (read-out: logP) is 3.1. Further, the activity at 10 min, 100 µM on CYP3A4 came out at 99%. Also, in the series with Rattus norvegicus [4], the Time amounted to 315.5 s. In addition, in series [5], the half-life was 1.7 h. The compound also had a clearance in series [6] of 38.3 mL/min/kg. Also, in series [11], the AUC worked out at 1590 ng·h/mL. This compound also returned a bioavailability in series [12] of 73%. Moreover, the Kp at 1 h in [9] stood at 0.92. Moreover, the Drug metabolism in [10] is 0 pmol/min.

In series [3], `Cc1nc(OCC(=O)N(C)C2CCN(CC3CC3(F)F)CC2)nc(C)c1N.Cl` (racemic) returned a distribution volume (Vd) of 3.2 L/kg. In addition, in the series listed under Rattus norvegicus [1], the Activity came to 189%. For the same compound, the logP in series [2] (read-out: logP) was 2.2. The activity at 10 min, 100 µM at CYP3A4 stood at 86%. In series [5], the half-life was 2.7 h. The compound further gave a clearance in [6] of 38.3 mL/min/kg. The exposure (AUC) in series [11] worked out at 1100 ng·h/mL. For the same compound, in series [12], the bioavailability stood at 52%. Also, in [9], the Kp at 1 h is 0.12.

Regarding `Cc1nc(OCC(=O)N(C)C2CCN(Cc3ccccc3)C2)nc(C)c1N` (centres undefined), in the series filed under Rattus norvegicus [1], the Activity turned out to be 77%. The logP in series [2] (read-out: logP) worked out at 2.6. In addition, at CYP3A4, the activity at 10 min, 100 µM was 55%.

In the case of `Cc1nc(OCC(=O)N(C)C2CCN(Cc3ncccc3F)CC2)nc(C)c1N`, the Activity in the series listed under Rattus norvegicus [1] was 119%. The logP in series [2] (read-out: logP) came to 1.7. Also, the activity at 10 min, 100 µM at CYP3A4 was found to be 62%.

As for `Cc1nc(OCC(=O)N(C)C2CCN(C3(C)COC3)CC2)nc(C)c1N`, the Activity in the series filed under Rattus norvegicus [1] was determined as 59%. In addition, in [2] (read-out: logP), the logP is 1.2. Further, the activity at 10 min, 100 µM at CYP3A4 was determined as 97%.

With `CC(C)Cc1ccc(C(C)C(=O)O)cc1` (centres undefined) [IBUPROFEN], in series [2] (read-out: logP), the logP is 2.97.

As to `Cc1nc(OCC(=O)N(C)C2CN(Cc3ccccc3)CC2F)nc(C)c1N` (centres undefined), the logP in series [2] (read-out: logP) was found to be 3.7. Further, the Activity on Cytochrome P450 3A4 is given as 16%.
